Results as given in PMC12371361 (Frontiers in Immunology, 2025).
Residues, ends and D or L forms follow the SMILES beside them.

How the values were obtained:
[1] = target: HLA-B*27:05 (Homo sapiens, UniProt P01889, D138H/D201E/E176V/E204Q/G107R/H137Y/K202T/N104T/N87E/Q56L/Q94K/R106L/R155S/R180L/S101D/S121N/S48T/Y140D/Y33H/Y91C); experiment: Peptide/HLA binding affinity assay; conditions: EC50 = peptide concentration at half saturation; HLA heavy chain refolded with varying peptide conc., 20–24 h, room temperature, ELISA 450 nm; <100 nM = high affinity
Excerpt: Plates were then developed using ELISA.

[2] = target: HLA-C*07:01 (Homo sapiens, UniProt P10321, K90N/S123Y); experiment: biochemical
Experimental: (§1) The affinity of peptide/HLA binding was determined as described before ([21], [22]). Briefly, biotinylated HLA Class I heavy chains were denatured and diluted into refolding buffer containing β-mercaptoethanol and varying concentrations of the test/control peptides. The mixtures were incubated with agitation at room temperature for 20–24 hours to enable peptide/HLA complex formation. The solutions containing the complexes were transferred to streptavidin plates and incubated for 30 minutes. Plates were then developed using ELISA. Absorbance measured at 450 nm was graphed against the varying concentrations of the test peptide used. The affinity of peptide/HLA binding was determined by calculating the EC50, defined as the peptide concentration resulting in half saturation. Peptides with an EC50 under 100 nM were classified as high affinity binders.

[3] = target: HLA-B*35:01 (Homo sapiens, UniProt P01889, A329T/A93T/A95T/C349S/D201E/D98Y/E176V/E187L/E204Q/E69T/I218V/K202T/L119I/Q94N/R155S/R180L/S121R/S35A/S48A/T118I/V127L/V306I/V36M/Y140S/Y91F); experiment: biochemical
Experimental: as §1

[4] = target: HLA-B*40:01 (Homo sapiens, UniProt P01889, A65T/A93T/A95T/D138N/D98Y/E176V/E69K/N87E/Q56L/Q94N/R180L/S121R/S35A/S48T/T167S/V36M/W171L/Y33H/Y91S); experiment: biochemical
Experimental: as §1

[5] = target: HLA-A*02:01 (Homo sapiens, UniProt P04439, D140Y/D185E/D98H/E176V/E277Q/G131W/G231S/I119V/I121R/I166T/I218V/L300P/L318F/N151K/N90K/P208A/P217A/Q86G/Q94H/R138H/R169H/T345S); experiment: biochemical
Experimental: as §1

[6] = target: HLA-C*03:03 (Homo sapiens, UniProt P10321, A176E/A330V/A97T/C25G/C350S/D114A/D33Y/E197K/G115R/L119I/L127V/L171W/L218V/M285V/M309V/M331V/P208H/Q277E/Q291P/R243W/R45H/S123Y/S140Y/S297R/S48A/T118I/T187L/T329A/T363A/V319A); conditions: C*03:03 measured as substitute for C*03:04; EC50 = peptide concentration at half saturation; refolding 20–24 h, room temperature, ELISA 450 nm; <100 nM = high affinity
Experimental: as §1

[7] = target: HLA-A*68:01 (Homo sapiens, UniProt P04439, A269V/D185E/E176V/E277Q/E87N/F33Y/G231S/I121M/I166T/I218V/L180W/L300P/L318F/N151K/P208A/P217A/Q86R/R169H/T345S); experiment: biochemical
Experimental: as §1

[8] = target: HLA-A*01:01 (Homo sapiens, UniProt P04439, A114D/A174V/A182V/D101N/D185E/E176A/E190D/L180R/Q94H/R68K/S129P/T187R/V100A/V91M/W191G); experiment: biochemical
Experimental: as §1

[9] = test system: AAV9 capsid-specific CD8 T cells in healthy donor PBMCs; experiment: Peptide deconvolution FluoroSpot, CD4-depleted PBMCs expanded with Class I MAPPs pool (IFN-γ); assay type: cell-based, human; conditions: for Total no. of responders: 24 healthy donors, CD4-depleted PBMCs expanded 10 days with Class I MAPPs pool, matrix pools 1 µg per peptide/mL, then individual peptide 2 µg/mL, ~24 h, positive = SI ≥1.4; for T cell response in tested donors / donors with the predicted binding allele (in words) / % response in donors with allele(s): CD4-depleted PBMCs expanded with Class I MAPPs pool; for T cell response in tested donors / donors with the predicted binding allele (in words): IFN-γ FluoroSpot; for % response in donors with allele(s): responders among cohort donors expressing the peptide's predicted HLA binding allele(s)
Experimental: For the identification of immunodominant CD8 T cell epitopes, the 41 HLA Class I MAPPs peptides were arranged in a matrix of 13 pools, each containing 6–7 peptides ( Supplementary Table 4 ). Per the matrix, each matrix pool was constructed by combining the peptides listed in each column or each row ([16]). Peptides present at the intersection of responding matrix pools were shortlisted and tested individually. All matrix pools were dissolved in 100% DMSO and tested at 1 µg per peptide/mL. For individual testing, peptides were dissolved in 100% DMSO and tested at 2 µg/mL. Matrix pools and individual peptides were synthesized by GenScript.
Frozen PBMCs were thawed and resuspended in AIM V+ 5% SR at 1X10^6 cells/mL. Cells were stimulated with test peptide pools (1 µg per peptide/mL) and expanded in vitro for 10 days as described previously ([17]). On Days 4 and 7, cells were supplemented with a cytokine cocktail containing IL-2 (R&D Systems, 10 units/mL), IL-7 (R&D Systems, 10 ng/mL), and IL-15 (PeproTech, 10 ng/mL). On Day 10, cells were harvested, washed, and restimulated on precoated IFN-γ FluoroSpot plates (MabTech) in triplicates (125,000 cells/well). Peptide pools (1 µg per peptide/mL) or individual peptides (2 µg/mL, for deconvolution studies) were used for restimulation. Anti-CD3 antibody (MabTech, 100 ng/mL) and DMSO were used as positive and negative controls respectively. Plates were incubated at 37 degrees Celsius for ~ 24 hours and processed as described in the previous section.
For experiments involving T cell depletion, CD4 T cells were depleted via magnetic separation using human CD4 Microbeads (Miltenyi Biotec) and an AutoMACS separator (Miltenyi Biotec) according to manufacturer’s instructions. Depleted cells were washed with MACS buffer prior to seeding on culture plates.
For FluoroSpot assays, results were expressed as Spot Forming Units (SFU), calculated as the spot count per million PBMCs. The Stimulation Index (SI) was calculated as the average SFU in test wells/average SFU in DMSO control wells. For assays with fresh PBMCs, an SI of 2 or higher with a minimum of 50 SFU was counted as a positive IFN-γ/TNF-α response. For assays with expanded PBMCs, an SI of 1.4 or higher was set as the cutoff for a positive IFN-γ response. Predicted HLA binding alleles for each peptide were determined using MHCMotifDecon 1.0 as previously described ([13], [14], [23]). Predicted binding affinities for identified epitopes were determined using NetMHC 4.0 ([24]). Data tables and heatmaps were created using Excel. Data analysis and graphical representations were performed on Graph Pad Prism 10.
To identify the immunodominant CD8 T cell epitopes within the HLA Class I MAPPs peptides, we utilized a system of matrix pools which facilitates rapid mapping of immunodominant epitopes when investigating a large number of peptides. The 41 HLA Class I MAPPs peptides were arranged into 13 matrix pools (MPs), each containing 6–7 peptides ( Supplementary Table 4 ). The matrix arrangement allows each Class I peptide to feature in two MPs, and a restimulation response to both MPs containing a specific peptide identifies putative immunodominant peptides that can be verified on an individual basis. Peptide deconvolution was performed on a cohort of 24 healthy donors. PBMCs were depleted of CD4 T cells and expanded as described before with the Class I MAPPs pool (41 peptides). Expanded PBMCs were restimulated on FluoroSpot assays with the 13 MPs.

**Q.** For `CC(C)[C@H](NC(=O)[C@H](C)NC(=O)[C@H](CCCNC(=N)N)NC(=O)CN)C(=O)N[C@@H](Cc1ccccc1)C(=O)N[C@@H](CCC(N)=O)C(=O)N[C@@H](C)C(=O)N[C@@H](CCCCN)C(=O)N[C@@H](CCCCN)C(=O)O` [Peptide 5] (H-GRAVFQAKK-OH), which EC50 [1] is on record?
**A.** The EC50 was 83.9 nM.

**Q.** `CC(C)C[C@H](NC(=O)[C@H](C)NC(=O)[C@H](Cc1c[nH]c2ccccc12)NC(=O)[C@@H](NC(=O)[C@H](CCCNC(=N)N)NC(=O)[C@@H](N)[C@@H](C)O)[C@@H](C)O)C(=O)N1CCC[C@H]1C(=O)N[C@H](C(=O)N[C@@H](Cc1ccc(O)cc1)C(=O)O)[C@@H](C)O` [Peptide 10] (H-TRTWALPTY-OH) was tested. Which EC50 [1] did it give?
**A.** The EC50 was 120 nM.

**Q.** What about the EC50 [2] of the same molecule?
**A.** The EC50 was greater than 10000 nM.

**Q.** With `CC(C)C[C@H](NC(=O)[C@H](Cc1c[nH]cn1)NC(=O)[C@H](CC(N)=O)NC(=O)[C@H](CC(N)=O)NC(=O)[C@H](Cc1ccc(O)cc1)NC(=O)[C@@H](NC(=O)[C@@H]1CCCN1C(=O)[C@@H](N)CC(C)C)[C@@H](C)O)C(=O)N[C@@H](Cc1ccc(O)cc1)C(=O)O` [Peptide 11] (H-LPTYNNHLY-OH) as the molecule, how does the EC50 [3] read?
**A.** Its EC50 is 96.7 nM.

**Q.** With `CSCC[C@H](NC(=O)[C@H](CCC(N)=O)NC(=O)[C@H](CO)NC(=O)[C@@H]1CCCN1C(=O)[C@H](Cc1ccccc1)NC(=O)[C@H](Cc1ccc(O)cc1)NC(=O)[C@H](CCC(=O)O)NC(=O)[C@@H](N)CC(C)C)C(=O)N[C@@H](CC(C)C)C(=O)O` [Peptide 19] (H-LEYFPSQML-OH) as the molecule, how does the EC50 [4] read?
**A.** The EC50 was 0.1 nM.

**Q.** For `CC(C)C[C@H](N)C(=O)N[C@@H](CCCNC(=N)N)C(=O)N[C@H](C(=O)NCC(=O)N[C@@H](CC(N)=O)C(=O)N[C@@H](CC(N)=O)C(=O)N[C@@H](Cc1ccccc1)C(=O)N[C@@H](CCC(N)=O)C(=O)N[C@@H](Cc1ccccc1)C(=O)O)[C@@H](C)O` [Peptide 20] (H-LRTGNNFQF-OH), which EC50 [1] is on record?
**A.** Its EC50 is 122 nM.

**Q.** With `CC(C)[C@H](NC(=O)[C@H](CC(N)=O)NC(=O)[C@H](CCC(=O)O)NC(=O)[C@H](Cc1ccccc1)NC(=O)[C@H](CCC(=O)O)NC(=O)[C@H](Cc1ccc(O)cc1)NC(=O)[C@H](CO)NC(=O)[C@H](Cc1ccccc1)NC(=O)[C@H](CCC(N)=O)NC(=O)[C@@H](N)Cc1ccccc1)C(=O)O` [Peptide 21] (H-FQFSYEFENV-OH) as the molecule, how does the EC50 [5] read?
**A.** Its EC50 is 0.6 nM.

**Q.** With `CC[C@H](C)[C@H](NC(=O)[C@@H](N)CC(C)C)C(=O)N[C@@H](CC(=O)O)C(=O)N[C@@H](CCC(N)=O)C(=O)N[C@@H](Cc1ccc(O)cc1)C(=O)N[C@@H](CC(C)C)C(=O)N[C@@H](Cc1ccc(O)cc1)C(=O)N[C@@H](Cc1ccc(O)cc1)C(=O)N[C@@H](CC(C)C)C(=O)O` [Peptide 24] (H-LIDQYLYYL-OH) as the molecule, how does the EC50 [5] read?
**A.** The EC50 was 0.6 nM.

**Q.** `CSCC[C@H](NC(=O)[C@H](CC(N)=O)NC(=O)[C@H](CO)NC(=O)[C@@H]1CCCN1C(=O)CNC(=O)[C@H](C)NC(=O)[C@@H](NC(=O)[C@@H](N)CO)C(C)C)C(=O)N[C@@H](C)C(=O)N[C@H](C(=O)N[C@@H](CCC(N)=O)C(=O)NCC(=O)N[C@@H](CCCNC(=N)N)C(=O)O)C(C)C` [Peptide 26] (H-SVAGPSNMAVQGR-OH) was tested. Which “Binding affinity (nM), C*03:03” value [6] did it give?
**A.** Its value is “Non-binder”.

**Q.** And the EC50 [7]?
**A.** The EC50 was 1.9 nM.

**Q.** For `CSCC[C@H](NC(=O)[C@H](CC(N)=O)NC(=O)[C@H](CO)NC(=O)[C@@H]1CCCN1C(=O)CNC(=O)[C@H](C)NC(=O)[C@@H](N)C(C)C)C(=O)N[C@@H](C)C(=O)N[C@H](C(=O)O)C(C)C` [Peptide 27] (H-VAGPSNMAV-OH), which “Binding affinity (nM), A*68:01” value ([7]; EC50 = peptide concentration at half saturation, HLA heavy chain refolded with varying peptide conc., 20–24 h, room temperature, ELISA 450 nm, <100 nM = high affinity) is on record?
**A.** The value was “Non-binder”.

**Q.** How did the EC50 [8] turn out when `CC[C@H](C)[C@H](NC(=O)[C@@H]1CCCN1C(=O)[C@H](CCCNC(=N)N)NC(=O)[C@@H]1CCCN1C(=O)[C@H](CCC(=O)O)NC(=O)[C@H](CO)NC(=O)[C@@H](N)Cc1ccc(O)cc1)C(=O)NCC(=O)N[C@H](C(=O)N[C@@H](CCCNC(=N)N)C(=O)N[C@@H](Cc1ccc(O)cc1)C(=O)O)[C@@H](C)O` [Peptide 41] (H-YSEPRPIGTRY-OH) was run?
**A.** The EC50 was 16.3 nM.

**Q.** With “QPAKKRLNF [Peptide 7, predicted allele B*07:02]” as the molecule, how does the “Total no. of responders” value ([9]; IFN-γ) read?
**A.** The value was 0.

**Q.** And the “T cell response in tested donors / donors with the predicted binding allele (in words)” value [9]?
**A.** Its value is “did not elicit a response”.

**Q.** What about the “% response in donors with allele(s)” value ([9]; IFN-γ, SI ≥1.4) of the same molecule?
**A.** Its value is 0/6 (0%).

**Q.** With “SQAVGRSSF [Peptide 17, predicted allele B*15:01]” as the molecule, how does the “Total no. of responders” value ([9]; IFN-γ) read?
**A.** Its value is 0.

**Q.** What about the “T cell response in tested donors / donors with the predicted binding allele (in words)” value [9] of the same molecule?
**A.** Its value is “did not elicit a response”.

**Q.** And the “% response in donors with allele(s)” value ([9]; IFN-γ, SI ≥1.4)?
**A.** The value was 0/2 (0%).

**Q.** For TDSDYQLPYVL [Peptide 13], which “T cell response in tested donors / donors with the predicted binding allele (in words)” value [9] is on record?
**A.** The value was “elicited a T cell response”.

**Q.** What about the Responding donors ([9]; peptide deconvolution in 24 healthy donors, '-' = no responding donor, IFN-γ, SI ≥1.4) of the same molecule?
**A.** Its Responding donors is “Donor # 442”.
